≈ marks a conversion by molar mass, not a printed value. Where two headings read alike, the source gives them in different places.
Tests used:
E. coli 0-111 = assay: Antibacterial spectra, agar dilution method; format: cell-based
From the text: (§1) (mcg/ml., agar dilution method)
as §1
(§2) (mcg/ml, agar dilution method)
(§3) (mcg./ml., agar dilution method)

E. coli NIHJ JC-2 = assay: Antibacterial spectra, agar dilution method; format: cell-based; settings: Escherichia coli
From the text: as §1, §1, §2, §3

S. aureus 1840 = assay: Antibacterial spectra, agar dilution method; format: cell-based
From the text: as §1, §1, §2, §3

S. aureus 209P = assay: Antibacterial spectra, agar dilution method; format: cell-based; settings: Staphylococcus aureus
From the text: as §1, §1, §2, §3

E. coli T-7 = assay: Antibacterial spectra, agar dilution method; format: cell-based; settings: Escherichia coli
From the text: (§4) |(mcg./ml., agar dilution method)

P. vulgaris IFO 3988 = assay: Antibacterial spectra, agar dilution method; format: cell-based; settings: Proteus vulgaris
From the text: as §4

K. pneumoniae DT = assay: Antibacterial spectra, agar dilution method; format: cell-based; settings: Klebsiella pneumoniae
P. vulgaris Eb-57 = assay: Antibacterial spectra, agar dilution method; format: cell-based; settings: Proteus vulgaris
From the text: |(mcg/ml., agar dilution method)

P. vulgaris Eb-58 = assay: Antibacterial spectra, agar dilution method; format: cell-based; settings: Proteus vulgaris, EB58, tables in Examples 13 and 16
From the text: as §1, §2

P. morganii Eb53 = assay: Antibacterial spectra, agar dilution method; format: cell-based; settings: for MIC: Morganella morganii
From the text: as §2, §3

Escherichia coli 0111 = assay: Protective Effect on Infected Mice; format: in vivo; settings: Escherichia coli, 0111, sc, 168 h, male ICR/SLC mice, i.p. E. coli 0111, single subcutaneous dose immediately after challenge, 7 days
From the text: Protective Effect (ED50 * , mg/kg) on Infected Mice
*Test animals: male mice (ICR/SLC) 5 mice per group per single dose
Infection: intraperitoneally with Escherichia coli 0111
Administration: a single subcutaneous dose immediately after challenge
Observation period: 7 days
*Test animals: male mice (ICR/SLC) 5 mice per group single dose

[1] = Escherichia coli, 0111, E. coli 0-111, Table 11
[2] = Escherichia coli, 0111, E. coli 0-111, tables in the Examples
[3] = NIHJJC2, read-out: Antibacterial spectra, E. coli NIHJ JC-2, Table 11
[4] = NIHJJC2, read-out: Antibacterial spectra, E. coli NIHJ JC-2, tables in the Examples
[5] = Staphylococcus aureus, 1840, read-out: Antibacterial spectra, S. aureus 1840, Table 11
[6] = Staphylococcus aureus, 1840, read-out: Antibacterial spectra, S. aureus 1840, tables in the Examples
[7] = 209P, read-out: Antibacterial spectra, S. aureus 209P, Table 11
[8] = S. aureus 209P, tables in the Examples, read-out: Antibacterial spectra
[9] = T7, E. coli T-7, agar dilution method, Table 11, read-out: Antibacterial spectra
[10] = IFO3988, P. vulgaris IFO 3988, agar dilution method, Table 11, read-out: Antibacterial spectra
[11] = EB57, P. vulgaris Eb-57, agar dilution method, table in Example 10, read-out: Antibacterial spectra
[12] = P. morganii Eb53, agar dilution method, Table 11, read-out: Antibacterial spectra
[13] = P. morganii Eb53, agar dilution method, table in Example 16
[14] = Table 12, read-out: Protective Effect (ED50) on Infected Mice
[15] = 209P, read-out: Antibacterial spectra, S. aureus 209P, tables in the Examples
[16] = EB53, read-out: Antibacterial spectra
[17] = T7, read-out: Antibacterial spectra
[18] = Staphylococcus aureus, S. aureus 1840, Table 11, read-out: Antibacterial spectra

Structure (SMILES)	MIC (E. coli 0-111; [1])	MIC (E. coli NIHJ JC-2; [3])	MIC (S. aureus 1840; [5])	MIC (S. aureus 1840; [6])	MIC (S. aureus 209P; [7])	MIC (E. coli T-7; [9])	MIC (P. vulgaris IFO 3988; [10])	MIC (K. pneumoniae DT; Table 11)	MIC (K. pneumoniae DT; tables in the Examples)	MIC (P. morganii Eb53; [12])	ED50 (Escherichia coli 0111; Table 13, read-out: ED50)	ED50 (Escherichia coli 0111; Table 14, read-out: ED50)	MIC (P. morganii Eb53; [16])	further results
O=C(Cc1cccs1)N[C@@H]1C(=O)N2C(C(=O)[O-])=C(C[n+]3ccccc3)CS[C@H]12 [Cephaloridine, reference compound]	1.56 µg/mL (≈ 3.75 µM)	3.13 µg/mL (≈ 7.53 µM)	0.39 µg/mL (≈ 0.939 µM)	0.39 µg/mL (≈ 0.939 µM)	≤ 0.2 µg/mL	> 100 µg/mL	6.25 µg/mL (≈ 15 µM)	1.56 µg/mL (≈ 3.75 µM)	3.12 µg/mL (≈ 7.52 µM)	> 100 µg/mL	1.94 mg/kg	3.57 mg/kg	–	MIC (E. coli 0-111; [2]): 3.12 µg/mL (≈ 7.52 µM); MIC (E. coli NIHJ JC-2; [4]): 6.25 µg/mL (≈ 15 µM); MIC (S. aureus 209P; [8]): 0.05 µg/mL (≈ 0.12 µM); MIC (P. vulgaris Eb-57; [11]): > 100 µg/mL; MIC (P. vulgaris Eb-58): 12.5 µg/mL (≈ 30.1 µM); Antibacterial spectra (P. morganii Eb53; [13]): > 100 µg/mL; ED50 (Escherichia coli 0111; [14]): 2.81 mg/kg
Cc1nnc(SCC2=C(C(=O)O)N3C(=O)[C@@H](NC(=O)Cn4cnnn4)[C@H]3SC2)s1 [Cephazolin, reference compound]	0.78 µg/mL (≈ 1.72 µM)	1.56 µg/mL (≈ 3.43 µM)	0.78 µg/mL (≈ 1.72 µM)	1.56 µg/mL (≈ 3.43 µM)	≤ 0.2 µg/mL	50 µg/mL (≈ 110 µM)	6.25 µg/mL (≈ 13.8 µM)	1.56 µg/mL (≈ 3.43 µM)	1.56 µg/mL (≈ 3.43 µM)	100 µg/mL (≈ 220 µM)	–	3.1 mg/kg	–	MIC (E. coli 0-111; [2]): 1.56 µg/mL (≈ 3.43 µM); MIC (E. coli NIHJ JC-2; [4]): 1.56 µg/mL (≈ 3.43 µM); MIC (S. aureus 209P; [15]): 0.1 µg/mL (≈ 0.22 µM); MIC (S. aureus 209P; [8]): 0.01 µg/mL (≈ 0.022 µM); MIC (P. vulgaris Eb-57; [11]): 50 µg/mL (≈ 110 µM); MIC (P. vulgaris Eb-58): 6.25 µg/mL (≈ 13.8 µM); Antibacterial spectra (P. morganii Eb53; [13]): 100 µg/mL
CN(C)CCSc1nnc(SCC2=C(C(=O)O)N3C(=O)C(NC(=O)Cc4csc(N)n4)C3SC2)s1 (stereo not shown) [Compound 9]	0.39 µg/mL (≈ 0.68 µM)	–	0.78 µg/mL (≈ 1.36 µM)	–	≤ 0.2 µg/mL	50 µg/mL (≈ 87.1 µM)	–	≤ 0.2 µg/mL	–	–	–	–	< 0.2 µg/mL	MIC (E. coli NIHJ JC-2; NIHJJC2, E. coli NIHJ JC-2, Table 11, read-out: Antibacterial spectra): 1.56 µg/mL (≈ 2.72 µM); MIC (P. vulgaris IFO 3988; IFO3988, read-out: Antibacterial spectra): 6.25 µg/mL (≈ 10.9 µM); ED50 (Escherichia coli 0111; [14]): 0.812 mg/kg
Nc1nc(CC(=O)NC2C(=O)N3C(C(=O)O)=C(CSc4nnc(SCCS(=O)(=O)O)s4)CSC23)cs1 (stereo not shown) [Compound 12]	≤ 0.2 µg/mL	0.78 µg/mL (≈ 1.28 µM)	1.56 µg/mL (≈ 2.55 µM)	–	0.39 µg/mL (≈ 0.639 µM)	50 µg/mL (≈ 81.9 µM)	≤ 0.2 µg/mL	≤ 0.2 µg/mL	–	25 µg/mL (≈ 40.9 µM)	< 0.625 mg/kg	–	–	–
Nc1nc(CC(=O)NC2C(=O)N3C(C(=O)O)=C(CSc4nnc(SCC(=O)O)s4)CSC23)cs1 (stereo not shown) [Compound 15]	≤ 0.2 µg/mL	0.78 µg/mL (≈ 1.39 µM)	1.56 µg/mL (≈ 2.78 µM)	–	0.78 µg/mL (≈ 1.39 µM)	25 µg/mL (≈ 44.6 µM)	≤ 0.2 µg/mL	≤ 0.2 µg/mL	–	3.13 µg/mL (≈ 5.58 µM)	< 0.625 mg/kg	–	–	–
NC(=O)CSc1nnc(SCC2=C(C(=O)[O-])N3C(=O)C(NC(=O)Cc4csc(N)n4)[C@H]3SC2)s1.[Na+] (stereo partly shown) [Compound 16, sodium 7-[2-(2-aminothiazol-4-yl)acetamido]-3-(2-carbamoylmethylthio-1,3,4-thiadiazol-5-yl)thiomethyl-3-cephem-4-carboxylate]	≤ 0.2 µg/mL	0.39 µg/mL	0.78 µg/mL	–	≤ 0.2 µg/mL	–	≤ 0.2 µg/mL	≤ 0.2 µg/mL	–	–	< 0.625 mg/kg	–	1.56 µg/mL	MIC (E. coli T-7; [17]): 12.5 µg/mL
Nc1nc(CC(=O)NC2C(=O)N3C(C(=O)O)=C(CSc4nnc(NCCO)s4)CSC23)cs1 (stereo not shown) [Compound 17]	≤ 0.2 µg/mL	0.39 µg/mL (≈ 0.736 µM)	–	–	0.39 µg/mL (≈ 0.736 µM)	–	0.39 µg/mL (≈ 0.736 µM)	≤ 0.2 µg/mL	–	–	< 0.625 mg/kg	–	0.78 µg/mL (≈ 1.47 µM)	MIC (S. aureus 1840; [18]): 3.13 µg/mL (≈ 5.91 µM); MIC (E. coli T-7; [17]): 12.5 µg/mL (≈ 23.6 µM)
CN(C)CCNc1nnc(SCC2=C(C(=O)O)N3C(=O)C(NC(=O)Cc4csc(N)n4)C3SC2)s1 (stereo not shown) [Compound 18]	≤ 0.2 µg/mL	0.78 µg/mL (≈ 1.4 µM)	–	–	1.56 µg/mL (≈ 2.8 µM)	–	1.56 µg/mL (≈ 2.8 µM)	≤ 0.2 µg/mL	–	–	< 0.625 mg/kg	–	1.56 µg/mL (≈ 2.8 µM)	MIC (S. aureus 1840; [18]): 3.13 µg/mL (≈ 5.62 µM); MIC (E. coli T-7; [17]): 6.25 µg/mL (≈ 11.2 µM)
Nc1nc(CC(=O)NC2C(=O)N3C(C(=O)O)=C(CSc4nnc(CC(=O)O)s4)CSC23)cs1 (stereo not shown) [Compound 19, disodium 7-[2-(2-aminothiazol-4-yl)acetamido]-3-(2-carboxymethyl-1,3,4-thiadiazol-5-yl)thiomethyl-3-cephem-4-carboxylate]	≤ 0.2 µg/mL	0.78 µg/mL	–	–	0.78 µg/mL	25 µg/mL	≤ 0.2 µg/mL	≤ 0.2 µg/mL	–	–	–	–	0.78 µg/mL	MIC (S. aureus 1840; [18]): 3.13 µg/mL; ED50 (Escherichia coli 0111; [14]): < 0.625 mg/kg
NC(=O)Cc1nnc(SCC2=C(C(=O)[O-])N3C(=O)C(NC(=O)Cc4csc(N)n4)[C@H]3SC2)s1.[Na+] (stereo partly shown) [Compound 21, sodium 7-[2-(2-aminothiazol-4-yl)acetamido]-3-(2-carbamoylmethyl-1,3,4-thiadiazol-5-yl)thiomethyl-3-cephem-4-carboxylate]	≤ 0.2 µg/mL	0.39 µg/mL	1.56 µg/mL	–	≤ 0.2 µg/mL	–	≤ 0.2 µg/mL	≤ 0.2 µg/mL	–	–	–	–	0.78 µg/mL	MIC (E. coli T-7; [17]): 25 µg/mL; ED50 (Escherichia coli 0111; [14]): < 0.625 mg/kg
Cn1cnnc1SCC1=C(C(=O)O)N2C(=O)C(NC(=O)Cc3csc(N)n3)C2SC1 (stereo not shown) [Compound 39]	< 0.05 µg/mL	0.2 µg/mL (≈ 0.428 µM)	1.56 µg/mL (≈ 3.34 µM)	–	0.78 µg/mL (≈ 1.67 µM)	25 µg/mL (≈ 53.5 µM)	–	0.1 µg/mL (≈ 0.214 µM)	–	25 µg/mL (≈ 53.5 µM)	–	0.73 mg/kg	–	–
CC(=O)OCC1=C(C(=O)O)N2C(=O)C(NC(=O)Cc3csc(N)n3)C2SC1 (stereo not shown) [Example 10, sodium 7-[2-(2-aminothiazol-4-yl)acetamido]-3-acetoxymethyl-3-cephem-4-carboxylat]	–	–	–	1.56 µg/mL	–	–	–	–	< 0.78 µg/mL	–	–	–	–	MIC (E. coli NIHJ JC-2; NIHJJC2, E. coli NIHJ JC-2, tables in the Examples, read-out: Antibacterial spectra): 1.56 µg/mL; MIC (S. aureus 209P; [15]): < 0.78 µg/mL; MIC (P. vulgaris Eb-57; EB57, read-out: Antibacterial spectra): < 0.78 µg/mL
Nc1nc(CC(=O)NC2C(=O)N3C(C(=O)O)=C(CSc4nncs4)CSC23)cs1 (stereo not shown) [Example 13, sodium 7-[2-(2-aminothiazol-4-yl)-acetamido]-3-(1,3,4-thiadiazol-2-yl)thiomethyl-3-cephem-4-carboxylate]	–	–	–	< 0.78 µg/mL	–	–	–	–	< 0.78 µg/mL	–	–	2.38 mg/kg	–	MIC (E. coli 0-111; [2]): < 0.78 µg/mL; MIC (S. aureus 209P; [15]): < 0.78 µg/mL; MIC (P. vulgaris Eb-58): < 0.78 µg/mL
Cn1nnnc1SCC1=C(C(=O)O)N2C(=O)C(NC(=O)Cc3csc(N)n3)C2SC1 (stereo not shown) [Example 16, sodium 7-[2-(2-aminothiazol-4-yl)acetamido]-3-(1-methyltetrazol-5-yl)thiomethyl-3-cephem-4-carboxylate]	–	–	–	0.78 µg/mL	–	–	–	–	< 0.1 µg/mL	–	–	0.89 mg/kg	–	MIC (E. coli 0-111; [2]): 0.2 µg/mL; MIC (E. coli NIHJ JC-2; [4]): 0.39 µg/mL; MIC (S. aureus 209P; [15]): 0.39 µg/mL; MIC (P. vulgaris Eb-58): 0.39 µg/mL; MIC (P. morganii Eb53; P. morganii Eb53, agar dilution method, table in Example 16, read-out: Antibacterial spectra): 3.12 µg/mL
